The values that follow come from article PMC10793205, “Differential transmetallation of complexes of the anti-cancer thiosemicarbazone, Dp4e4mT: effects on anti-proliferative efficacy, redox activity, oxy-myoglobin and oxy-hemoglobin oxidation” (Chemical Science, 2023).

One series has as its system AsPC-1 cells. As to the kind of experiment: MTT cellular proliferation assay, AsPC-1 pancreatic adenocarcinoma cells. Format: cell-based, human. As to conditions: for IC50: 37 °C, MTT, mean ± SD (3 experiments); for Therapeutic index AsPC-1: IC50 of MRC-5 cells/IC50 of AsPC-1 cells, 72 h/37 °C. As for the experimental part: The anti-proliferative activity of Dp4e4mT relative to its complexes with Fe(III), Co(III), Ni(II), Cu(II), Zn(II), Ga(III), and Pd(II) was examined over incubation periods of 24-, 48-, and 72 h/37 °C (Table 2). These studies were performed using human SK-N-MC neuroepithelioma and AsPC-1 pancreatic adenocarcinoma cells that we have previously examined to assay other ligands.[15,28,43] […]
All cell lines were procured from the American Type Culture Collection (ATCC; Manassas, VA). The SK-N-MC neuroepithelioma cell line and the mortal MRC-5 fibroblasts were cultured in minimum essential medium (Sigma-Aldrich), while the AsPC-1 cell line was cultured in Roswell Park Memorial Institute 1640 medium (Thermo Fisher Scientific, MA, USA). Both media were supplemented with 10% fetal calf serum, non-essential amino acids (1 mM), sodium pyruvate (1 mM), L-glutamine (2 mM), penicillin (100 U/mL), streptomycin (100 U/mL), and Fungizone (0.5 µg/mL). Cells were maintained at 37 °C in an incubator under a humidified atmosphere with 5% CO 2, following established protocols. 11 Cellular Proliferation Assay
Cellular proliferation was evaluated through the established 3-(4,5-dimethylthiazol-2-yl)-2,5-diphenyltetrazolium bromide (MTT) proliferation assay, validated by viable cell counts.12 […]
Ligands and complexes were dissolved in DMSO to make a stock solution of 10 mM, subsequently diluted in culture media. For cell culture experiments, the DMSO's maximum concentration remained below 0.5% (v/v), with no discernible impact on proliferation.12 MTT […]
Trypan blue staining.12 Analysis of the data was executed employing MARS Data Analysis Software (BMG LabTech; version 3.30). The concentration of agents necessary to inhibit cellular proliferation by 50% (IC 50) was then calculated. […]

Another series concerns the target oxy-Hb (Homo sapiens, UniProt P68871+P69905). The series is described as follows: Oxidation of purified oxy-Hb to met-Hb (UV-vis). In kind it is biochemical. As to conditions: 10 μM agent, oxy-Hb 40 μM, 1–3 h/20 °C. The text has this:
As such, it was important to examine the effect of the Dp4e4mT complexes on oxy-Hb and oxy-Mb oxidation (Fig. 6 and 7). Comparisons were made to three controls, namely DFO, Dp44mT, and DpC, as well as their Fe(III) complexes. […] In contrast, the Fe(III) complexes of Dp44mT and DpC were positive controls, as they induce oxidation of oxy-Mb.[28,39,42]
Fig. 7 (A and B) Investigation of the effects of Dp4e4mT and its Fe(III), Co(III), Ni(II), Cu(II), Zn(II), Ga(III), and Pd(II) complexes versus DFO, Dp44mT, DpC and their Fe(III) complexes (10 μM) on met-Hb generation (% zero time) after an incubation of 1–3 h/20 °C with purified oxy-Hb (40 μM). (C) Investigation of the effects of Dp4e4mT and its Fe(III), Co(III), Ni(II), Cu(II), Zn(II), Ga(III), or Pd(II) complexes relative to the positive controls DFO, Dp44mT, DpC, and their Fe(III) complexes (10 μM) on oxy-Hb oxidation in intact human erythrocytes after a 3 h/37 °C incubation. Results are mean ± SD (3 experiments).
Spectroscopic Examination of Met-Mb and Met-Hb Formation from Oxy-Mb and Oxy- […]
Oxy-Mb and oxy-Hb solutions were prepared following established protocols.8, 17 In brief, solutions of reduced Mb and Hb in PBS (pH 7.2) were prepared by adding 1.2 mL of Na2S2O4 (12 mM) to 38 mL of met-Mb and met-Hb solution (40 μM). 17 Subsequently, oxy-Mb and oxy-Hb were generated by gently passing 150 mL of oxygen (from an air-filled syringe) through the solution containing reduced Mb and Hb, effectively eliminating any residual Na2S2O4. Following this, the oxy-Mb and oxy-Hb solutions were passed through a PD-10 column prepacked with 8.3 mL of Sephadex G-25 and equilibrated with PBS (pH 7.2). 17 In experiments examining the activity of the agents, all complexes were dissolved in 1,2-propanediol, then diluted to 10 µM in PBS (pH 7.2). The experiments were conducted over incubations of 0 to 3 h with the agents. UV-Vis spectra covering the range of 300 to 700 nm were recorded at a temperature of 20°C using a Shimadzu UV−Vis spectrophotometer (UV-1800; Shimadzu, Kyoto, Japan). Concentrations of met-Mb and met-Hb, as well as reduced-Mb and reduced-Hb, were determined at 409 nm and 435 nm, respectively. Concentrations of oxy-Mb and oxy-Hb were determined at 544 nm and 582 nm, respectively. 17

A short description of series [1]: Transmetallation kinetics with Cu(OAc)2 in DMSO (time-resolved UV-vis). As to conditions: for Observed pseudo first order rate constant kobs, Cu(OAc)2 (only or first step): 10-fold excess of Cu(OAc)2 in DMSO, 25 °C. Format: physicochemical. As for the experimental part:
The capacity of the Fe(III), Ni(II), Co(III), Zn(II), Ga(III), and Pd(II) complexes of Dp4e4mT to transmetallate with Cu(II) and/or Fe(III) to result in redox active Cu(II) and Fe(III) complexes could be critical in understanding their anti-proliferative efficacy, redox activity, and ability to oxidize oxy-Mb and oxy-Hb. To examine this, LC-MS spectrometry was performed in DMSO after the addition of 1 equivalent of FeCl3 or Cu(OAc)2 and the solutions then incubated for 24 h/20 °C due to slow reaction kinetics. This solution was then diluted 1 : 1 in methanol and LC-MS performed using a mobile phase consisting of 90% MeOH, 9.9% water, and 0.1% formic acid (Fig. S2–S9 ^†). These investigations were supported by EPR studies in DMSO after the addition of 1 equivalent of FeCl3 or Cu(OAc)2 incubated under the same conditions (Fig. 3A–G). As a third method to investigate transmetallation, kinetic studies using time-resolved UV-vis spectroscopy were performed under pseudo-first order conditions with a 10-fold excess of FeCl3 or Cu(OAc)2 in DMSO (Fig. S11–S16 ^†). The pseudo-first order rate constants were calculated from the time-dependent UV-vis spectroscopy data (at all wavelengths) with Reactlab Kinetics[49] and collected in Table S2. ^† […]
Time-dependent UV-Vis absorption spectra were measured on an Agilent 8453 diode array UV−Vis spectrophotometer, equipped with a thermostatted (± 0.1 °C) multicell transport cooled by a Huber Ministat 230 recirculating cooling bath. Spectral analysis was carried out with Reactlab Kinetics. 10 […]
Table S2. Observed pseudo first order rate constants (k obs, s−1) for reactions of each Dp4e4mT complex with a 10-fold excess of Cu(OAc) 2 or FeCl 3 in DMSO or water (pH 7.4 or 5.0) at 25 °C. […]
[Co(Dp4e4mT)2]+ No reaction No reaction No reaction No reaction […]
a Reaction could not be deciphered by UV-Vis spectroscopy; bchlorido ligand hydrolysis

Where [2] appears, read: Homo sapiens, ASPC1, AsPC-1, 24 h.
Where [3] appears, read: Homo sapiens, ASPC1, AsPC-1, 48 h.
[4] abbreviates: Homo sapiens, ASPC1, AsPC-1, 72 h.

Chain of oxy-Hb (P69905 2-142 limits assumed): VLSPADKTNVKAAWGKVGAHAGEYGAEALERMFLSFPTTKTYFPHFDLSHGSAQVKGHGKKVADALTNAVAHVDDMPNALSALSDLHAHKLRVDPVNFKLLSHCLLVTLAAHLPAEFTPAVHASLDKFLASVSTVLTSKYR
Chain of oxy-Hb (P68871 2-147 limits assumed): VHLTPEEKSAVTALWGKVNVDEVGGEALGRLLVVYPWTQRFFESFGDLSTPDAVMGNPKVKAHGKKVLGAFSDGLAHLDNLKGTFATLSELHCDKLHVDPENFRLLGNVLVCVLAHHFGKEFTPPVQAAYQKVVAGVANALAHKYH

As a reminder, the IC50 is the concentration that inhibits the measured activity by half. A higher IC50 goes with a need for much substance. As to `CCN(C)C(=S)NN=C(c1ccccn1)c1ccccn1` [Dp4e4mT, di-2-pyridylketone-4-ethyl-4-methyl-3-thiosemicarbazone], the IC50 was 3780 ± 91 nM in the series on AsPC-1 cells (setting [2]), 45 ± 8 nM in the series on AsPC-1 cells (setting [3]) and 9 ± 2 nM in the series on AsPC-1 cells (setting [4]). For the same compound, the “Therapeutic index AsPC-1” value with AsPC-1 cells is 120.
In the same order, the values of `CN(C)C(=S)NN=C(c1ccccn1)c1ccccn1` [Dp44mT, di-2-pyridylketone 4,4-dimethyl-3-thiosemicarbazone, reference compound] are 4640 ± 71 nM, 42 ± 6 nM, 15 ± 3 nM and 71.
In the same order, the values of `CN(C(=S)NN=C(c1ccccn1)c1ccccn1)C1CCCCC1` [DpC, di-2-pyridylketone 4-cyclohexyl-4-methyl-3-thiosemicarbazone, reference compound] are 4921 ± 34 nM, 87 ± 34 nM, 18 ± 7 nM and 165.
Regarding `CCN(C)C([S-])=NN=C(c1ccccn1)c1ccccn1.CCN(C)C([S-])=NN=C(c1ccccn1)c1ccccn1.[Co+3]` [[Co(Dp4e4mT)2]^+], the IC50 with AsPC-1 cells (AsPC-1, 24 h) worked out at 9522 ± 91 nM; in the series on AsPC-1 cells (AsPC-1, 48 h), 2680 ± 78 nM; in the series on AsPC-1 cells (AsPC-1, 72 h), 1570 ± 257 nM. Also, the “Therapeutic index AsPC-1” value in the series on AsPC-1 cells is 2. In addition, the “oxy-Hb oxidation, purified oxy-Hb (in words)” value (“oxy-Hb oxidation” for short) was “minimal impact” at oxy-Hb and “low levels of oxy-Hb oxidation” on oxy-Hb (listed as Dp4e4mT Co(III) complex). Moreover, in series [1], the “Observed pseudo first order rate constant kobs, Cu(OAc)2 (only or first step)” value is listed as “No reaction”.
Regarding `CCN(C)C([S-])=NN=C(c1ccccn1)c1ccccn1.[Cl-].[Cu+2]` [[Cu(Dp4e4mT)Cl]], the IC50 with AsPC-1 cells (AsPC-1, 24 h) was determined as 1074 ± 6 nM; in the series on AsPC-1 cells (AsPC-1, 48 h), 42 ± 6 nM; with AsPC-1 cells (AsPC-1, 72 h), 3 ± 1 nM. In the series with AsPC-1 cells, the “Therapeutic index AsPC-1” value is 130. Moreover, on oxy-Hb, the “oxy-Hb oxidation” value is “lowest ability to oxidize oxy-Mb and oxy-Hb”.
For the compound `CCN(C)C([S-])=NN=C(c1ccccn1)c1ccccn1.CCN(C)C([S-])=NN=C(c1ccccn1)c1ccccn1.[Fe+3]` [[Fe(Dp4e4mT)2]^+], the IC50 in the series on AsPC-1 cells (AsPC-1, 24 h) came to 22380 ± 58 nM; with AsPC-1 cells (AsPC-1, 48 h) it was 1580 ± 77 nM; in the series with AsPC-1 cells (AsPC-1, 72 h), 201 ± 31 nM. In addition, in the series with AsPC-1 cells, the “Therapeutic index AsPC-1” value is on record as 9. Besides, in series [1] (Cu(OAc)2 in DMSO, first of two consecutive first order steps), the “t½, reaction with Cu(OAc)2, first step” value is on record as about 6 min. In addition, in series [1] (Cu(OAc)2 in DMSO, second of two consecutive first order steps), the “t½, reaction with Cu(OAc)2, second step” value is given as about 1 h.
As to `CCN(C)C([S-])=NN=C(c1ccccn1)c1ccccn1.CCN(C)C([S-])=NN=C(c1ccccn1)c1ccccn1.[Ga+3]` [[Ga(Dp4e4mT)2]^+], the IC50 is 2431 ± 15 nM in the series with AsPC-1 cells (AsPC-1, 24 h); 1730 to 2430 nM in the series on AsPC-1 cells (AsPC-1, 24 h, listed as Dp4e4mT Ga(III) complex); 47 ± 6 nM in the series with AsPC-1 cells (AsPC-1, 48 h); 5 ± 1 nM in the series with AsPC-1 cells (AsPC-1, 72 h). Moreover, the “Therapeutic index AsPC-1” value in the series with AsPC-1 cells was found to be 154. The “oxy-Hb oxidation” value at oxy-Hb is “significantly increased oxy-Mb and oxy-Hb oxidation”. The “t½, transmetallation with Cu(OAc)2” value in series [1] (Cu(OAc)2 in DMSO) lay in the range of 3 to 4 h.
Regarding `CCN(C)C([S-])=NN=C(c1ccccn1)c1ccccn1.CCN(C)C([S-])=NN=C(c1ccccn1)c1ccccn1.[Ni+2]` [[Ni(Dp4e4mT)2]], the IC50 with AsPC-1 cells (AsPC-1, 24 h) is over 25000 nM; in the series with AsPC-1 cells (AsPC-1, 48 h) it was 234 ± 83 nM; in the series on AsPC-1 cells (AsPC-1, 72 h), 76 ± 54 nM. Besides, the “Therapeutic index AsPC-1” value with AsPC-1 cells is given as 62. Also, the “oxy-Hb oxidation” value was “minimal impact” on oxy-Hb and “low levels of oxy-Hb oxidation” on oxy-Hb (listed as Dp4e4mT Ni(II) complex). Also, the “t½, transmetallation with Cu(OAc)2” value in series [1] (Cu(OAc)2 in DMSO) is about 2 h.
As to `CCN(C)C([S-])=NN=C(c1ccccn1)c1ccccn1.[Cl-].[Pd+2]` [[Pd(Dp4e4mT)Cl]], the half-inhibitory concentration (IC50) with AsPC-1 cells (AsPC-1, 24 h) was over 25000 nM; in the series on AsPC-1 cells (AsPC-1, 48 h) it was 1340 ± 74 nM; with AsPC-1 cells (AsPC-1, 72 h), 262 ± 78 nM. Also, the “Therapeutic index AsPC-1” value in the series on AsPC-1 cells was 3. Also, the “oxy-Hb oxidation” value is reported as “minimal impact” on oxy-Hb and “low levels of oxy-Hb oxidation” at oxy-Hb (listed as Dp4e4mT Pd(II) complex). In addition, in series [1], the “Observed pseudo first order rate constant kobs, Cu(OAc)2 (only or first step)” value is recorded as “No reaction”.
Take `CCN(C)C([S-])=NN=C(c1ccccn1)c1ccccn1.CCN(C)C([S-])=NN=C(c1ccccn1)c1ccccn1.[Zn+2]` [[Zn(Dp4e4mT)2]]: the “Therapeutic index AsPC-1” value in the series with AsPC-1 cells was determined as 125. For the same compound, at oxy-Hb, the “oxy-Hb oxidation” value was “significantly increased oxy-Mb and oxy-Hb oxidation”. Further, in series [1], the “Observed pseudo first order rate constant kobs, Cu(OAc)2 (only or first step)” value is over 0.1 s⁻¹.
